Columns and labels:
[1] = test system: HIV-1 B41 Env pseudotyped HIV-1; experiment: microbe, parasite or virus in culture; type: cell-based; settings: Human immunodeficiency virus 1, U87/CD4/CCR5, 48 h, read-out: IC50 B41
[2] = target: B41 SOSIP.664 gp140 trimer (Human immunodeficiency virus type 1, UniProt B3UES2, A505C/E513R/I563P/INS515RR/K514R/T609C); type: binding, HIV-1
[3] = test system: HIV-1 JR-CSF Env pseudotyped HIV-1; experiment: microbe, parasite or virus in culture; type: cell-based; settings: Human immunodeficiency virus 1, U87/CD4/CCR5, 48 h, read-out: IC50 JR-CSF
[4] = test system: HIV-1B41 and HIV-1JR-CSF Env pseudotyped virions; experiment: microbe, parasite or virus in culture; type: cell-based; settings: Human immunodeficiency virus 1, read-out: Median IC50
in vitro = settings: human
[5] = target: HIV-1 B41 SOSIP.664 gp140 trimer (Human immunodeficiency virus type 1, UniProt B3UES2, A505C/E513R/I563P/INS515RR/K514R/T609C); type: binding

| SMILES | IC50 [1] [nM] | ka [2] [M⁻¹ s⁻¹] | kd [2] [s⁻¹] | IC50 [3] [nM] | IC50 [4] [nM] | CC50 at 48 h (in vitro) [nM] | ka [5] [M⁻¹ s⁻¹] | kd [5] [s⁻¹] |
| --- | --- | --- | --- | --- | --- | --- | --- | --- |
| COc1cnc(-n2cnc(C)n2)c2[nH]cc(C(=O)C(=O)N3CC4CN(C(=O)c5ccccc5)CC4C3)c12 (centres unmarked) [SC11] | 2 ± 0.2 | 4330 | 0.000287 | 0.6 ± 0.1 | ~2 | > 50000 |  |  |
| COc1cnc(-n2cnc(C)n2)c2[nH]cc(C(=O)C(=O)N3CCN(C(=O)c4ccccc4)CC3)c12 [BMS-626529, reference compound] | 0.05 ± 0.006 |  |  | 0.06 ± 0.005 | 0.055 |  | 38900 | 0.00059 |
| COc1cnc(-n2cnc(C)n2)c2[nH]cc(C(=O)C(=O)N(C)C3CN(C(=O)c4ccccc4)C3)c12 [SC18] | 360 ± 12 | 15900 | 0.0248 | 132 ± 4 | 246 | > 50000 |  |  |
| COc1cnc(-n2cnc(C)n2)c2[nH]cc(C(=O)C(=O)N3CC4C=NN(c5nnnn5-c5ccccc5)C4C3)c12 (centres unmarked) [SC39] | 5320 ± 260 | 1390 | 0.0381 | 143 ± 52 | 2730 | > 50000 |  |  |
| COc1cnc(-n2cnc(C)n2)c2[nH]cc(C(=O)C(=O)N3CC(CSC(=O)c4ccccc4)C3)c12 [SC16] | 37 ± 5 | 86200 | 0.00598 | 29 ± 8 | 33 | > 50000 |  |  |

From article PMC6222832, “Kinetic Characterization of Novel HIV-1 Entry Inhibitors: Discovery of a Relationship between Off-Rate and Potency” (Molecules : A Journal of Synthetic Chemistry and Natural …, 2018)
